{"source": "patent US6150361A", "about": "“Triazineone compounds for treating diseases due to sarcosystis, neospora and toxoplasma” (Bayer Corporation, priority 1998, dated 2000)", "key": {"[1]": {"test": "Pharmacokinetics of a single oral dose of Toltrazuril in horses (blood levels)", "assay_type": "in vivo", "conditions": "single oral dose of Toltrazuril 10 mg/kg", "description": "A pharmacokinetic study was conducted in horses comparing blood levels of Toltrazuril, Ponazuril and Toltrazuril Sulfoxide at various times post a single dose of Toltrazuril. All horses received a single dose of 10 mg/kg, which was administered orally as a suspension. Blood samples were drawn at the time of treatment (0) and at 0.25, 0.5, 1, 2, 4, 6, 12, 24, 48 and 72 hours post treatment. […] This was an indication that Ponazuril, alone, would produce acceptable blood levels that are envisioned to pass the blood-brain barrier, a characteristic required to treat neurological diseases such as those caused by Sarcocystis neurona, Toxoplasma gondii, Neospora caninum and Neospora"}, "Sarcocystis neurona": {"tested_on": "Sarcocystis neurona", "test": "Microtiter Monolayer Disruption Assay (MMDA), Sarcocystis neurona", "assay_type": "cell-based, Sarcocystis neurona strain SN3", "conditions": "BT cells", "description": "In order to determine the scope of protection provided by Ponazuril, in vitro testing was conducted. The following strains of parasites were evaluated for their sensitivity to this compound: Strain SN3 of Sarcocystis neurona; strain SF1 of Sarcocystis falcatula; strain RH of Toxoplasma gondii; and the NC-1 strain of Neospora caninum. […]\nBovine turbinate (BT) cells were used for all in vitro studies. Cells were grown to confluency in 25 cm^2 flasks in RMPI 1640 media supplemented with 10% v/v fetal bovine serum (FBS), 100 Units penicillin (G/mL), […] streptomycin/mL and 5×10^-2 mM 2-mercpatoethanol. After cell confluence was obtained, cells were maintained in the same media with reduced FBS (2% v/v). Cell cultures were incubated at 37 C. in a humidified atmosphere containing 5% carbon dioxide and 95% air.\nFor growth of parasites, BT cell monolayers were infected with parasites and examined with an inverted microscope for the development of lesions (cytopathic effect, \"CPE\") or the presence of many extracellular merozoites. Once lesions were observed, or many extracellular parasites were present, the monolayer was scraped with the tip of a 5 mL pipette and 1 to 3 drops of the merozoite-containing fluid was transferred to two flasks of fresh BT cells. Merozoites of S. neurona and S. falcatula were passaged in this manner every 5 to 10 days while the tachyzoites of T. gondii and N. caninum were passaged every 3 to 4 days.\nThe assay used to determine the effectiveness of Ponazuril was the Microtiter Monolayer Disruption Assay (MMDA). This assay was used to determine if the parasites or compound were toxic for BT cells. Flat bottomed 96-well microtiter plates were inoculated with BT cells and the resulting monolayers were used to determine the effects of Toltrazuril and Ponazuril on merozoite production as measured by CPE (plaque formation). Monolayers were inoculated with parasites (S. neurona or S. falcatula at a count of 50,000/well, T. gondii at a level of 10,000/well, and N. caninum at 20,000/well. All wells were inoculated with the test compound 2 hours after infection. Untreated and […] monolayer wells served as parasite controls and uninfected agent treated BT cells served as toxicity controls. Each treatment was examined in replicates of 6. Each well was visually monitored daily and the assay was stopped when 90-100% of the untreated merozoite infected cells had lysed (90-100% CPE). All wells of the plates were rinsed in Phosphate Buffered Saline (PBS) and fixed in 100% methanol for 5 minutes after which they were stained in crystal violet solution. […]"}, "EPM-Infected Horses": {"tested_on": "EPM-Infected Horses", "test": "Treatment of naturally occurring clinical EPM in horses with Ponazuril paste (clinical score)", "assay_type": "in vivo", "description": "The compound was formulated into a paste using Ponazuril as a 15% active ingredient (a.i.) as described in EXAMPLE 1. It was administered to horses already diagnosed with EPM once a day for 28 days at a dose rate between 2.5 mg/Kg and 10 mg/Kg.\nNaturally occurring clinical cases of EPM were well characterized by signalment and laboratory diagnosis. The diagnosis used for incorporation of EPM-positive horses into this trial was as follows: Confirmed asymmetrical neurological deficit as determined by a standardized neurological examination, to include radiography, indicative of EPM; Positive Western Blot for Sarcocystis neurona IgG; Red Blood Cell count below 500 cells/mL; CSF indices--Total Protein<90, IgG index>0.3. AQ quotient<2.2.\nAdditional requirements were that the horses were not suffering from diseases other than EPM. Therefore, they had to meet the following criteria: Negative CSF (<1:4) for EHV-1; Normal serum values for Vitamin E (.2.0 μg/mL); Lack of seizure disorders; Lack of behavior disorders.\nDiagnosed horses were randomly assigned to groups. Group 1 horses received the paste formulation daily at a dose rate of 5 mg/Kg whereas Group 2 horses received the paste formulation daily at a dose rate of 10 mg/Kg. The treatment dose was based on body weight. The horses were evaluated for a period of 90 days (approximately 60 days after discontinuation of treatment) in order to determine that treatment was indeed effective. The response to treatment was scored using the following system:\n1) 0=complete success-clinically normal with a negative CSF; 2) 1=Deficit just detected at a normal gait; 3) 2=Deficit easily detected and exaggerated by backing, turning, swaying, jaw loin pressure and neck extension; 4) 3=Deficit very prominent on walking, Facial turning, loin pressure or neck extension; 5) 4=Stumbling, tripping and falling down spontaneously; 6) 5=Recumbent, unable to rise. An improvement of one (1) unit in the score was considered a significant improvement."}, "[2]": {"conditions": "individual horse, 5 mg/Kg paste daily for 28 days, score 0=complete success to 5=recumbent, listed as Toltrazuril Sulfone"}, "[3]": {"conditions": "individual horse, 10 mg/Kg paste daily for 28 days, score 0=complete success to 5=recumbent, listed as Toltrazuril Sulfone"}, "[4]": {"conditions": "sum of scores of group, 5 mg/Kg daily for 28 days"}, "[5]": {"conditions": "sum of scores of group, 10 mg/Kg daily for 28 days"}}, "note": "Where “and” joins values, the source holds several entries; their conditions need not be identical. Equal entries are not always repeated.", "data": [{"molecule": "Cc1cc(-n2c(=O)[nH]c(=O)n(C)c2=O)ccc1Oc1ccc(S(=O)(=O)C(F)(F)F)cc1", "note": "[Ponazuril]", "values": [{"measurement": "concentration at 0.25 h", "setting": "[1]; horse, blood, po, 10 mg/kg, suspension, 0.25 h post treatment, one value per horse (A-F), read-out: Concentration in mg/l of Blood, 0.25 hours", "value": 0.01, "unit": "mg/L"}, {"measurement": "concentration at 24 h", "setting": "[1]; horse, blood, po, 10 mg/kg, suspension, 24 h post treatment, one value per horse (A-F), read-out: Concentration in mg/l of Blood, 24 hours", "value": 0.324, "unit": "mg/L"}, {"measurement": "levels in serum/bloodstream of horses receiving Toltrazuril (in words)", "setting": "[1]", "value": "relatively high levels"}, {"measurement": "Concentration in mg/l of Blood, 0.25 hours", "setting": "[1]; suspension, 0.25 h post treatment, one value per horse (A-F), 10 mg/kg, 15 min", "value": "< 0.01", "unit": "mg/L"}, {"measurement": "Concentration in mg/l of Blood, 6 hours", "setting": "[1]; suspension, 6 h post treatment, one value per horse (A-F), 10 mg/kg, 360 min", "value": 0.061, "unit": "mg/L"}, {"measurement": "Concentration in mg/l of Blood, 24 hours", "setting": "[1]; suspension, 24 h post treatment, one value per horse (A-F), 10 mg/kg, 1440 min", "value": "0.255 mg/L and 0.315 mg/L and 0.231 mg/L and 0.192 mg/L"}, {"measurement": "inhibition at 0.1 µg/mL", "setting": "Sarcocystis neurona; 0.1 μg/mL, read-out: Percent Inhibition of Cell Destruction, 0.1 μg/mL", "value": 0, "unit": "%"}, {"measurement": "inhibition at 1 µg/mL", "setting": "Sarcocystis neurona; 1 μg/mL, read-out: Percent Inhibition of Cell Destruction, 1 μg/mL", "value": 40, "unit": "%"}, {"measurement": "inhibition at 5 µg/mL", "setting": "Sarcocystis neurona; 5.0 μg/mL, read-out: Percent Inhibition of Cell Destruction, 5.0 μg/mL", "value": 90, "unit": "%"}, {"measurement": "inhibition at 10 µg/mL", "setting": "Sarcocystis neurona; 10 μg/mL, read-out: Percent Inhibition of Cell Destruction, 10 μg/mL", "value": 100, "unit": "%"}, {"measurement": "improvement in total scores, Group 1 versus Group 2", "setting": "EPM-Infected Horses; 5 mg/Kg versus 10 mg/Kg", "value": "approximately equivalent"}, {"measurement": "horses showing a significant improvement in clinical score by day 90", "setting": "EPM-Infected Horses; 10 mg/Kg, treated for 28 days, improvement of 1 unit significant", "value": 100, "unit": "%"}, {"measurement": "effectiveness for the active treatment of EPM in horses", "setting": "EPM-Infected Horses; either 5 mg/Kg or 10 mg/Kg", "value": "effective"}, {"measurement": "clinical score, Day 28, 5 mg/Kg Dose", "setting": "EPM-Infected Horses; [2]", "value": "1 and 2 and 0 and 3"}, {"measurement": "clinical score, Day 90, 5 mg/Kg Dose", "setting": "EPM-Infected Horses; [2]", "value": "2 and 1 and 0 and 3"}, {"measurement": "clinical score, Day 28, 10 mg/Kg Dose", "setting": "EPM-Infected Horses; [3]", "value": "2 and 1 and 0"}, {"measurement": "clinical score, Day 90, 10 mg/Kg Dose", "setting": "EPM-Infected Horses; [3]", "value": "1 and 0"}, {"measurement": "clinical score, Day 0, 5 mg/Kg Dose", "setting": "EPM-Infected Horses; individual horse, before treatment, 5 mg/Kg paste daily for 28 days, score 0=complete success to 5=recumbent, listed as Toltrazuril Sulfone", "value": "2 and 3"}, {"measurement": "clinical score, Day 0, 10 mg/Kg Dose", "setting": "EPM-Infected Horses; individual horse, before treatment, 10 mg/Kg paste daily for 28 days, score 0=complete success to 5=recumbent, listed as Toltrazuril Sulfone", "value": "4 and 3 and 2"}, {"measurement": "TOTAL clinical score, Day 28, 5 mg/Kg Dose", "setting": "EPM-Infected Horses; [4]", "value": 13}, {"measurement": "TOTAL clinical score, Day 90, 5 mg/Kg Dose", "setting": "EPM-Infected Horses; [4]", "value": 6}, {"measurement": "TOTAL clinical score, Day 28, 10 mg/Kg Dose", "setting": "EPM-Infected Horses; [5]", "value": 15}, {"measurement": "TOTAL clinical score, Day 90, 10 mg/Kg Dose", "setting": "EPM-Infected Horses; [5]", "value": 4}, {"measurement": "TOTAL clinical score, Day 0, 5 mg/Kg Dose", "setting": "EPM-Infected Horses; sum of scores of group, before treatment, 5 mg/Kg", "value": 17}, {"measurement": "TOTAL clinical score, Day 0, 10 mg/Kg Dose", "setting": "EPM-Infected Horses; sum of scores of group, before treatment, 10 mg/Kg", "value": 19}]}]}
